In test [1] the test system is Mus musculus. Briefly: Antitumor activity against mouse BA/F3 cells expressing Tel-JAK2 xenografted in NCr mouse assessed as reduction of phosphorylated Stat5 level in spleen at 10 mg/kg, po after 12 hrs by Western blotting. Format: functional, organism-based. Further details: dose 10 mg/kg. The note with it: BaF3.
The test system of test [2] is Mus musculus. The experiment in a line: Antitumor activity against mouse BA/F3 cells expressing Tel-JAK2 xenografted in po dosed NCr mouse assessed as reduction of phosphorylated Stat5 level in spleen by Western blotting. Format: functional, organism-based. The note with it: BaF3. A general note: A western blot detects proteins with antibodies after separation by electrophoresis.

Test [3] concerns the target Signal transducer and activator of transcription 3 (Homo sapiens) (UniProt P40763). The note with it: HEL, 0.3 uM.
Description: Inhibition of Stat3 phosphorylation in human HEL cells at 0.3 uM after 5 mins by Western blotting
In test [4] the test system is Mus musculus. The experiment in a line: Antitumor activity against mouse BA/F3 cells expressing Tel-JAK2 xenografted in NCr mouse assessed as reduction of phosphorylated Stat5 level in spleen at 30 mg/kg, po after 12 hrs by Western blotting. Format: functional, organism-based. Further details: dose 30 mg/kg. The note with it: BaF3.
A further test deals with BaF3. The experiment in a line: Antitumor activity against mouse BA/F3 cells expressing Tel-JAK2-luc xenografted in NCr mouse assessed as reduction of bioluminescent signal at 50 mg/kg, po bid measured on day 9 post-tumor cell implantation relative to control. Format: functional.
Test [5] has as its target T1, Signal transducer and activator of transcription 5A (Homo sapiens) (UniProt P42229).
T1 sequence (whole entry): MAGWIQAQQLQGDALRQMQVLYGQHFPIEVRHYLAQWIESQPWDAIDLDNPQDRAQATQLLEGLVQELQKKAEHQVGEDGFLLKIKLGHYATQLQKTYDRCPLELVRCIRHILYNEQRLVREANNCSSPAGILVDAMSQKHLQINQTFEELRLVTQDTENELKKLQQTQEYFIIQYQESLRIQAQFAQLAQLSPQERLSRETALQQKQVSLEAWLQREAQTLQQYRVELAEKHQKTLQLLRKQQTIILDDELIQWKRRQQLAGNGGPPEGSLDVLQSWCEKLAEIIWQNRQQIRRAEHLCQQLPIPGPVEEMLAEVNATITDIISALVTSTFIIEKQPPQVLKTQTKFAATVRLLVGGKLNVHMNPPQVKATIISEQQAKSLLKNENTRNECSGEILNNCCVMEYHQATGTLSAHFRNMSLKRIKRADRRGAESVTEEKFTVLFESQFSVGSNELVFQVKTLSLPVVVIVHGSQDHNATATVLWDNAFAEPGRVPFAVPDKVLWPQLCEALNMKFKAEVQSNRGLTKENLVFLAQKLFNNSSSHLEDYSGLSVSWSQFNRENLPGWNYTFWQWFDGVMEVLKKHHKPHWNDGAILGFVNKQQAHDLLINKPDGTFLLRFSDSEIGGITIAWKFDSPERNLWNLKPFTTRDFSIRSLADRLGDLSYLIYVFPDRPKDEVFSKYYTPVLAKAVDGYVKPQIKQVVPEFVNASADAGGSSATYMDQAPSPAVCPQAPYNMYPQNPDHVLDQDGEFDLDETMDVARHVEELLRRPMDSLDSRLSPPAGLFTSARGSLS
Conditions: HEL, 0.3 uM.
Description: Inhibition of Stat5 phosphorylation in human HEL cells at 0.3 uM after 5 mins by Western blotting

The subject of the next test is SW-620. Briefly: Cell cycle arrest in human SW620 cells assessed as accumulation at G2/M phase at 3.3 uM after 24 hrs by flow cytometry. Format: functional, cell-based. Background: Flow cytometry measures light scatter and fluorescence of single cells or particles in a stream.

The source made the active and inactive calls. The rule behind the calls is not given here.

Chain of Signal transducer and activator of transcription 3 (Homo sapiens) (P40763 whole entry): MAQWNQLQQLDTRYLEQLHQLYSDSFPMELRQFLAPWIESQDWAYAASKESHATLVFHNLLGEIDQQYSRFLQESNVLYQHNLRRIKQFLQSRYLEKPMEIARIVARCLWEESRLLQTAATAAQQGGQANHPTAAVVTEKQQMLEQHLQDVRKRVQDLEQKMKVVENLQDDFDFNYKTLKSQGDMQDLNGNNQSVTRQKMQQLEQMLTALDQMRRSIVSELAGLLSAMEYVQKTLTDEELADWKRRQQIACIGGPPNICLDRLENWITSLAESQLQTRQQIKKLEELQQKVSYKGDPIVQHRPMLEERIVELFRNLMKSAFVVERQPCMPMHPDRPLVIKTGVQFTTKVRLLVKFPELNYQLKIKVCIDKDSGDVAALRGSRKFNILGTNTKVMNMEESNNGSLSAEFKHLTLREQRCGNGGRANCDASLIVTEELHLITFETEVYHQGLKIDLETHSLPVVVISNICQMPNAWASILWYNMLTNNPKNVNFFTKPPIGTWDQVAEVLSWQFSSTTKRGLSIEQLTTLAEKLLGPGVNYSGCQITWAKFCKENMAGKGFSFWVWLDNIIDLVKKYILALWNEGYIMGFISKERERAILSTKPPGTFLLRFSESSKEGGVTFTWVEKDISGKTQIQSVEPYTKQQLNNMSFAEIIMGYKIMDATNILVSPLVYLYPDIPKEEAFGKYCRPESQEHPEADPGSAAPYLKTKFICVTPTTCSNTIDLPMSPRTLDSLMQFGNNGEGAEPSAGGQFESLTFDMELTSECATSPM

Consider `Cc1cc(Nc2nc(N[C@@H](C)c3ncc(F)cn3)ncc2Cl)[nH]n1`, for which, in the test on Mus musculus [1], the outcome was inactive. Further, the Activity result in the test on Mus musculus [2] and in the test on BaF3 was “Dose-dependent effect” each time. Also, the inhibition result in test [3] and in test [5] was “Active” each time. In addition, the outcome in the test on Mus musculus [4] and with SW-620 was Active.

(Values after ChEMBL document CHEMBL1649076, “Discovery of 5-chloro-N2-[(1S)-1-(5-fluoropyrimidin-2-yl)ethyl]-N4-(5-methyl-1H-pyrazol-3-yl)pyrimidine-2,4-diamine (AZD1480) as a novel inhibitor of the Jak/Stat pathway” (J Med Chem, 2011).)
